Measurements as given in article PMC10873978, “Novel tetrahydroisoquinolines as DHFR and CDK2 inhibitors: synthesis, characterization, anticancer activity and antioxidant properties” (BMC Chemistry, 2024).
Each block holds one compound with its values, some of them ahead of it.

Columns and labels:
[1] = DPPH scavenging antioxidant activity
Procedure: The antioxidant activity of ten compounds was determined using DPPH [32–34]. A solution 1: prepared by dissolving DPPH (0.002 g) in ethanol (50 mL etnanol). Solution 2: prepared by dissolving different weights 0.05, 0.01 g of each sample in 1 mL of DMSO then take 10 µL of each sample solution with 1 mL ethanol. Then mix 1 mL of solution 1 with 1 mL of solution 2 then vortex the resulting mixture in the dark for about 30 min. The absorbance of the mixture was measured by spectrophotometer at λmax = 517 nm against blank 1 mL absolute ethanol and compared to the ascorbic acid (Vitamin C).
Ten newly synthesized compounds were studied as in vitro antioxidants by measuring of their DPPH scavenging activity which is represented as a percentage % [32]^. Results are represented by mean ± SD of three replicates. […] The higher dose concentration of 0.05 μg/mL represents higher antioxidant activity. […] The high antioxidant activity is referred to the presence of C=O, NH2, and OH groups like ascorbic acid which can be easily oxidized and reduced and can be used as antioxidant drugs. (Fig. 8 and Table 9).

A549 cell line = assay: In vitro cytotoxic activity, MTT method, A549; settings: for IC50: Homo sapiens, read-out: IC50 ± SD
Procedure: (§1) Cell lines: The in vitro human breast cancerous cell line (MCF7), lung cancerous cell lines (A549) and normal cell lines were purchased from Serum and Vaccine formulation in Cairo-Egypt.
(§2) In vitro cytotoxic activity of all synthesized compounds against two human breast cell line (MCF7) and lung cell lines (A549) was evaluated according to the MTT method. Firstly, Growth the cell line medium in 96 well tissue culture plate was injected with 10^5 cells/mL (100 uL/plate well) of the cell line and incubated at 37 °C for 24 h to develop a monolayer sheet then the formed growth medium was poured from 96 well microtiter plates after the confluent sheet of cells. […] Secondly, add 0.1 mL of each concentration tetrahydroisoquinoline sample to each plate. The plates were incubated at 37 °C. Thirdly MTT solution (5 mg/mL in PBS) is prepared. Add 20 µL of MTT solution to each well plates. And shaking in 150 rpm for 5 min, to mix the MTT into the media. Then incubate at (37 °C, 5% CO2) for 1–5 h. Finally read the optical density at 560 nm and subtract background at 620 nm.
(§3) In this work, doxorubicin was used as a positive control drug for comparison with the synthesized compounds under the same experimental conditions.

MCF7 cell line = assay: In vitro cytotoxic activity, MTT method, MCF7; format: cell-based, human; settings: for IC50: Homo sapiens, MCF7, MCF7 cell line, MTT
Procedure: as §1, §2, §3

Eef2 kinase = Eef2 kinase (Homo sapiens, UniProt O00418); assay: Eef2 kinase inhibition; format: biochemical

SMILES: CC(=O)c1ccc(NC(=O)CSc2nc(C)c3c(c2C#N)CC(C)(O)C(C(C)=O)C3c2ccc(N(C)C)cc2)cc1 (stereo not shown) [Compound 7d, 2-[(7-Acetyl-4-cyano-1,6-dimethyl-6-hydroxy-8-(4-N,N-dimethylamino-phenyl)-5,6,7,8-tetrahydroisoquinolin-3-yl)thio]-N-(4-acetylphenyl)acetamide]
DPPH scavenging, inhibition (%) ([1]; 0.01 µg/mL): 48.08 ± 0.87%
DPPH scavenging, inhibition (%) ([1]; 0.05 µg/mL): 69.73 ± 0.73%
Toxicity % (A549 cell line; A549, Conc. 0.04875 µMol): 1.982%
Viability % (A549 cell line; A549, Conc. 0.04875 µMol): 98.02%
Toxicity % (A549 cell line; A549, Conc. 0.0975 µMol): 2.4569%
Viability % (A549 cell line; A549, Conc. 0.0975 µMol): 97.5431%
Toxicity % (A549 cell line; A549, Conc. 0.195 µMol): 3.708%
Viability % (A549 cell line; A549, Conc. 0.195 µMol): 96.29%
Toxicity % (A549 cell line; A549, Conc. 0.391 µMol): 36.8%
Viability % (A549 cell line; A549, Conc. 0.391 µMol): 63.2%
Toxicity % (A549 cell line; A549, Conc. 0.781 µMol): 53.89%
Viability % (A549 cell line; A549, Conc. 0.781 µMol): 46.11%
Toxicity % (A549 cell line; A549, Conc. 1.562 µMol): 70.45%
Viability % (A549 cell line; A549, Conc. 1.562 µMol): 29.55%
Toxicity % (A549 cell line; A549, Conc. 3.125 µMol): 77.08%
Viability % (A549 cell line; A549, Conc. 3.125 µMol): 22.92%
Toxicity % (A549 cell line; A549, Conc. 6.25 µMol): 86.79%
Viability % (A549 cell line; A549, Conc. 6.25 µMol): 13.21%
Toxicity % (A549 cell line; A549, Conc. 12.5 µMol): 92.98%
Viability % (A549 cell line; A549, Conc. 12.5 µMol): 7.022%
Toxicity % (A549 cell line; A549, Conc. 25 µMol): 96.61%
Viability % (A549 cell line; A549, Conc. 25 µMol): 3.393%
IC50 (A549 cell line): 446 ± 4 nM
IC50 (MCF7 cell line): 495 ± 2 nM
Toxicity % (MCF7 cell line; MCF7, 0.0487 µMol): 1.8855%
Viability % (MCF7 cell line; MCF7, 0.0487 µMol): 98.2255%
Toxicity % (MCF7 cell line; MCF7, 0.0975 µMol): 3.5566%
Viability % (MCF7 cell line; MCF7, 0.0975 µMol): 96.5544%
Toxicity % (MCF7 cell line; MCF7, 0.195 µMol): 5.106%
Viability % (MCF7 cell line; MCF7, 0.195 µMol): 94.89%
Toxicity % (MCF7 cell line; MCF7, 0.391 µMol): 28.72%
Viability % (MCF7 cell line; MCF7, 0.391 µMol): 71.28%
Toxicity % (MCF7 cell line; MCF7, 0.781 µMol): 52.53%
Viability % (MCF7 cell line; MCF7, 0.781 µMol): 47.47%
Toxicity % (MCF7 cell line; MCF7, 1.562 µMol): 65.69%
Viability % (MCF7 cell line; MCF7, 1.562 µMol): 34.31%
Toxicity % (MCF7 cell line; MCF7, 3.125 µMol): 76.63%
Viability % (MCF7 cell line; MCF7, 3.125 µMol): 23.37%
Toxicity % (MCF7 cell line; MCF7, 6.25 µMol): 94.04%
Viability % (MCF7 cell line; MCF7, 6.25 µMol): 5.964%
Toxicity % (MCF7 cell line; MCF7, 12.5 µMol): 96.65%
Viability % (MCF7 cell line; MCF7, 12.5 µMol): 3.35%
Toxicity % (MCF7 cell line; MCF7, 25 µMol): 96.73%
Viability % (MCF7 cell line; MCF7, 25 µMol): 3.268%

SMILES: CC(=O)C1C(c2ccc(N(C)C)cc2)c2c(C)nc3sc(C(=O)Nc4ccccc4)c(N)c3c2CC1(C)O (stereo not shown) [Compound 8a, 7-Acetyl-1-amino-5,8-dimethyl-8-hydroxy-6-(4-N,N-dimethylaminophenyl)-N-phenyl-6,7,8,9-tetrahydrothieno[2,3-c]isoquinoline-2-carboxamide]
DPPH scavenging, inhibition (%) ([1]; 0.01 µg/mL): 14.22 ± 1.32%
DPPH scavenging, inhibition (%) ([1]; 0.05 µg/mL): 23.66 ± 2.12%
Toxicity % (A549 cell line; A549, Conc. 0.04875 µMol): 3.135%
Toxicity % (A549 cell line; A549, Conc. 0.0975 µMol): 3.679%
Toxicity % (A549 cell line; A549, Conc. 0.195 µMol): 4.221%
Viability % (A549 cell line; A549, Conc. 0.195 µMol): 95.78%
Toxicity % (A549 cell line; A549, Conc. 0.391 µMol): 10.77%
Viability % (A549 cell line; A549, Conc. 0.391 µMol): 89.23%
Toxicity % (A549 cell line; A549, Conc. 0.781 µMol): 39.61%
Viability % (A549 cell line; A549, Conc. 0.781 µMol): 60.39%
Toxicity % (A549 cell line; A549, Conc. 1.562 µMol): 53.57%
Viability % (A549 cell line; A549, Conc. 1.562 µMol): 46.43%
Toxicity % (A549 cell line; A549, Conc. 3.125 µMol): 74.67%
Viability % (A549 cell line; A549, Conc. 3.125 µMol): 25.33%
Toxicity % (A549 cell line; A549, Conc. 6.25 µMol): 88.24%
Viability % (A549 cell line; A549, Conc. 6.25 µMol): 11.76%
Toxicity % (A549 cell line; A549, Conc. 12.5 µMol): 96.69%
Viability % (A549 cell line; A549, Conc. 12.5 µMol): 3.314%
Toxicity % (A549 cell line; A549, Conc. 25 µMol): 97.95%
Viability % (A549 cell line; A549, Conc. 25 µMol): 2.051%
IC50 (A549 cell line): 1045 ± 6 nM
IC50 (MCF7 cell line): 872 ± 3 nM
Toxicity % (MCF7 cell line; MCF7, Conc. 0.0487 µMol): -1.567%
Viability % (MCF7 cell line; MCF7, Conc. 0.0487 µMol): 101.5%
Toxicity % (MCF7 cell line; MCF7, Conc. 0.0975 µMol): -0.5332%
Viability % (MCF7 cell line; MCF7, Conc. 0.0975 µMol): 100.6%
Toxicity % (MCF7 cell line; MCF7, Conc. 0.195 µMol): -0.4085%
Viability % (MCF7 cell line; MCF7, Conc. 0.195 µMol): 100.4%
Toxicity % (MCF7 cell line; MCF7, Conc. 0.391 µMol): 8.047%
Viability % (MCF7 cell line; MCF7, Conc. 0.391 µMol): 91.95%
Toxicity % (MCF7 cell line; MCF7, Conc. 0.781 µMol): 34.56%
Viability % (MCF7 cell line; MCF7, Conc. 0.781 µMol): 65.44%
Toxicity % (MCF7 cell line; MCF7, Conc. 1.562 µMol): 65.28%
Viability % (MCF7 cell line; MCF7, Conc. 1.562 µMol): 34.72%
Toxicity % (MCF7 cell line; MCF7, Conc. 3.125 µMol): 87.21%
Viability % (MCF7 cell line; MCF7, Conc. 3.125 µMol): 12.79%
Toxicity % (MCF7 cell line; MCF7, Conc. 6.25 µMol): 94.16%
Viability % (MCF7 cell line; MCF7, Conc. 6.25 µMol): 5.842%
Toxicity % (MCF7 cell line; MCF7, Conc. 12.5 µMol): 96.9%
Viability % (MCF7 cell line; MCF7, Conc. 12.5 µMol): 3.105%
Toxicity % (MCF7 cell line; MCF7, Conc. 25 µMol): 97.43%
Viability % (MCF7 cell line; MCF7, Conc. 25 µMol): 2.574%

%inh (Eef2 kinase; Eef2, conc 0.01 (log -2)): 20.1%
%inh (Eef2 kinase; Eef2, conc 0.1 (log -1)): 33.9%
%inh (Eef2 kinase; Eef2, conc 1 (log 0)): 62.7%
%inh (Eef2 kinase; Eef2, conc 10 (log 1)): 84.3%
%inh (Eef2 kinase; Eef2, conc 100 (log 2)): 92.6%
SMILES: CCCCCCCCCCCCCCCCn1cc[n+](Cc2ccccc2)c1C.[I-] [NH125, reference compound]
